We go through eight molecules from patent US10689622B2, “Culture medium for proliferating stem cell, which contains sulfated compound” (AJINOMOTO CO., INC., priority 2012, dated 2020).

For test [1], the target named is T1, bFGF (Homo sapiens, UniProt P09038).
T1 construct: purchased Lonza (via TAKARA BIO INC.) Ser. No. 00/190,632
Kind of test: Evaluation of bFGF stabilization in Lonza serum-free medium (ELISA). The settings on record: Lonza serum-free medium, 37° C. for 7 days. The format is biochemical. The protocol:
A test compound was dissolved in phosphate buffered saline, and diluted 10-fold with a serum-free medium to adjust to the concentrations shown in Table 4 (test sample). The test sample was left standing in a tightly sealed Falcon tube at 37° C. for 7 days (Tables 5 to 8-2) or 3 days (Table 8-3), and the bFGF concentration was quantified by ELISA measurement. A phosphate buffered saline without a test compound was diluted 10-fold with a serum-free medium, and left standing at 37° C. or 4° C. for 7 days or 3 days, and used as a control.
(§1) A commercially available measurement kit (human bFGF ELISA kit, ELH-bFGF-001, Ray Biotech) was used for quantification of bFGF in the medium. The measurement procedures followed the protocol attached to the kit. The bFGF concentration of the serum-free medium was calculated from the analytical curve (conversion formula) drawn from the absorbance of an analytical curve standard solution. The evaluation criteria of Tables 5-8 are as follows:
A test compound was dissolved in phosphate buffered saline, and diluted 10-fold with a serum-free medium to adjust to the concentrations shown in Table 13 (test sample). The test sample was left standing in a tightly sealed Falcon tube at 37° C. for 7 days, and the bFGF concentration was quantified by ELISA measurement. A phosphate buffered saline without a test compound was diluted 10-fold with a serum-free medium, and left standing at 37° C. or 4° C. for 7 days, and used as a control.
A commercially available measurement kit (human bFGF ELISA kit, ELH-bFGF-001, Ray Biotech) was used for quantification of bFGF in the medium. The measurement procedures followed the protocol attached to the kit. The bFGF concentration of the serum-free medium was calculated from the analytical curve (conversion formula) drawn from the absorbance of an analytical curve standard solution. The evaluation criteria of Table 13 are as follows: […]
A general note: ELISA stands for enzyme-linked immunosorbent assay.

For test [2], the target named is T1, bFGF. Briefly: Evaluation of bFGF stabilization in Essential 8 medium (ELISA). The format is biochemical. The settings on record: 37° C. for 7 days. The procedure: as §1
A test compound was dissolved in phosphate buffered saline, and diluted 10-fold with a serum-free medium to adjust the concentration shown in Table 4 (test sample). The test sample was left standing in a tightly sealed Falcon tube at 37° C. for 7 days, and the bFGF concentration was quantified by ELISA measurement. A phosphate buffered saline without a test compound was diluted 10-fold with Essential 8 medium or ReproFF2 medium, and left standing at 37° C. or 4° C. for 7 days, and used as a control.
A commercially available measurement kit (human bFGF ELISA kit, ELH-bFGF-001, Ray Biotech) was used for quantification of bFGF in the medium. The measurement procedures followed the protocol attached to the kit. The bFGF concentration of the serum-free medium was calculated from the analytical curve (conversion formula) drawn from the absorbance of an analytical curve standard solution. The evaluation criteria of Table 13 are as follows:
A test compound was dissolved in phosphate buffered saline, and diluted 10-fold with a serum-free medium to adjust the concentration shown in Table 12 (test sample). The test sample was left standing in a tightly sealed Falcon tube at 37° C. for 7 days, and the bFGF concentration was quantified by ELISA measurement. A phosphate buffered saline without a test compound was diluted 10-fold with Essential 8 medium or ReproFF2 medium, and left standing at 37° C. or 4° C. for 7 days, and used as a control.

Test [3] has as its system Human bone marrow-derived mesenchymal stem cells. Kind of test: Mesenchymal stem cell proliferation system (cell number by DNA quantification). The conditions noted are these: mesenchymal stem cells.
Procedure: Human bone marrow-derived mesenchymal stem cells (Lonza, Human Mesenchymal Stem Cell) cultured in mesenchymal stem cell-dedicated medium (Lonza, MSCGM) or Dulbecco's Modified Eagle Medium (Invitrogen, GIBCO D-MEM) containing inactivated fetal bovine serum (Invitrogen, GIBCO FBS) and penicillin-streptomycin (Sigma-Aldrich Co. LLC.) were cultured in exchanged Lonza serum-free medium. The mesenchymal stem cells thus-acclimated to serum-free culture were suspended in Lonza serum-free medium, and seeded on a 24 well culture plate (Nippon Becton Dickinson Company, Ltd., Falcon culture plate) at 20,000 cells/well or a 6 well culture plate (Nippon Becton Dickinson Company, Ltd., Falcon culture plate) at 50,000 cells/well. Then, a test compound solution after filter sterilization and adjustment to a given concentration was added, and the cells were cultured in an incubator (Thermo Scientific, Forma incubator) under the 5% CO2/37° C. conditions for 7 to 8 days. When the medium exchange was necessary, the medium was exchanged 2 to 3 days after the seeding. In this case, the test compound solution was also added again in the same manner as in seeding. In this case, various compound solutions were added again in the same manner as in seeding. After culturing for 7 to 8 days, the medium was removed and DNA quantification was performed. As a control, the cells were cultured in the same manner in a medium without a test compound and added with phosphate buffered saline.
The medium in the 24 well culture plate was removed, and the cells were washed with phosphate buffered saline. The sodium lauryl sulfate solution (500 μl/well) was added, and the mixture was left standing at 37° C. for 4 hours. The sodium lauryl sulfate solution (1.0 ml) was also added to a cell pellet with a known cell number, and the mixture was left standing at 37° C. for 4 hours. As for the cells in the 24 well culture plate, a part (50 μl) of the lysate was transferred to a 96 well black microplate. The solution used for treating the cell pellets was successively diluted with sodium lauryl sulfate solution and used as solutions for drawing an analytical curve. Also, a part (50 μl) of the solutions for drawing an analytical curve was each transferred to the 96 well black microplate. […] The fluorescence was measured by a microplate reader (excitation wavelength: 355 nm, measurement wavelength: 460 nm) within 5 minutes from the addition. The cell number of the 24 well cell culture plate was calculated from the analytical curve drawn (conversion formula). The evaluation criteria were as follows.

SMILES strings stand for the structures.

T1 sequence (P09038 143-288): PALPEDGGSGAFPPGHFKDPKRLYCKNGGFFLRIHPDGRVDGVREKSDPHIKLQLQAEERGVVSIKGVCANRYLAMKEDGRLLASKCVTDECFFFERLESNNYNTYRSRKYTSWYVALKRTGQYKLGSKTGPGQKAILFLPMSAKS

`OC[C@@H](O)[C@@H](O[C@H]1O[C@H](CO)[C@@H](O)[C@H](O)[C@H]1O)[C@H](O)[C@@H](O)CO` [maltitol, reference compound]: the “bFGF concentration relative to that of 4° C. control (ELISA)” value (from here on “bFGF concentration relative to that”) at bFGF [1] (test compound 25 ng/ml), at bFGF [1] (test compound 250 ng/ml), on bFGF [1] (test compound 25 μg/ml) and on bFGF [1] (test compound 250 μg/ml) was “x (bFGF concentration was less than 10% relative to that of 4 °C control)” throughout.
On to `OC[C@H]1O[C@H](O[C@H]2[C@H](O)[C@@H](O)[C@@H](O[C@H]3[C@H](O)[C@@H](O)C(O)O[C@@H]3CO)O[C@@H]2CO)[C@H](O)[C@@H](O)[C@@H]1O` (stereo partly shown) [maltotriose, reference compound], for which the “bFGF concentration relative to that” value on bFGF [1] (test compound 25 ng/ml), on bFGF [1] (test compound 250 ng/ml), on bFGF [1] (test compound 25 μg/ml), on bFGF [1] (test compound 250 μg/ml), on bFGF [2] (test compound 250 pg/ml) and at bFGF [2] (test compound 25 ng/ml) was “x (bFGF concentration was less than 10% relative to that of 4 °C control)” each time. In addition, the “bFGF concentration relative to that” value at bFGF [2] (test compound 250 ng/ml), at bFGF [2] (test compound 25 μg/ml) and at bFGF [2] (test compound 250 μg/ml) was “x (bFGF concentration was less than 10% relative to that of 4 °C control)” in each case.
On to `OC[C@@H](O)[C@@H](O)[C@H](O)[C@H](O)CO` [mannitol, reference compound], for which the “bFGF concentration relative to that” value at bFGF [1] (test compound 25 ng/ml), at bFGF [1] (test compound 250 ng/ml), on bFGF [1] (test compound 25 μg/ml) and at bFGF [1] (test compound 250 μg/ml) was “x (bFGF concentration was less than 10% relative to that of 4 °C control)” in each case.
For `NC(COS(=O)(=O)[O-])C(=O)O.[Na+]` (stereo not shown) [serine SO3Na], the “concentration showing a suppressive effect on a decrease in the bFGF concentration of the medium” value at bFGF [1] is recorded as “not less than 25 μg/ml”. Further, the “bFGF concentration relative to that” value at bFGF [1] (test compound 250 pg/ml) was “x (bFGF concentration was less than 10% relative to that of 4 °C control)”; at bFGF [1] (test compound 25 ng/ml), “x (bFGF concentration was less than 10% relative to that of 4 °C control)”; on bFGF [1] (test compound 250 ng/ml) it was “x (bFGF concentration was less than 10% relative to that of 4 °C control)”; at bFGF [1] (test compound 25 μg/ml), “− (bFGF concentration was not less than 10% and less than 30% relative to that of 4 °C control)”; on bFGF [1] (test compound 250 μg/ml) it was “+++ (bFGF concentration was not less than 70% relative to that of 4 °C control)”. Also, the “number of cells relative to control” value in test [3] (test compound 25 pg/ml), in test [3] (test compound 250 pg/ml), in test [3] (test compound 25 ng/ml) and in test [3] (test compound 250 ng/ml) was “— (100-50)” each time.
As to `N[C@@H](CO)C(=O)O` [serine, reference compound], the “bFGF concentration relative to that” value at bFGF [1] (test compound 250 pg/ml), at bFGF [1] (test compound 25 ng/ml), at bFGF [1] (test compound 250 ng/ml), on bFGF [1] (test compound 25 μg/ml) and on bFGF [1] (test compound 250 μg/ml) was “x (bFGF concentration was less than 10% relative to that of 4 °C control)” throughout.
For the molecule `OC[C@H]1O[C@@](CO)(O[C@H]2O[C@H](CO)[C@@H](O)[C@H](O)[C@H]2O)[C@@H](O)[C@@H]1O` [sucrose, reference compound], the “bFGF concentration relative to that” value at bFGF [1] (test compound 25 ng/ml), at bFGF [1] (test compound 250 ng/ml) and on bFGF [1] (test compound 25 μg/ml) was “x (bFGF concentration was less than 10% relative to that of 4 °C control)” in each case.
For `OC[C@@H](O)[C@H](O)[C@@H](O)CO` [xylitol, reference compound], the “bFGF concentration relative to that” value at bFGF [1] (test compound 25 ng/ml), at bFGF [1] (test compound 250 ng/ml), on bFGF [1] (test compound 25 μg/ml) and at bFGF [1] (test compound 250 μg/ml) was “x (bFGF concentration was less than 10% relative to that of 4 °C control)” in each case.
Take `OC[C@H]1O[C@@H]2O[C@H]3[C@H](O)[C@@H](O)[C@@H](O[C@H]4[C@H](O)[C@@H](O)[C@@H](O[C@H]5[C@H](O)[C@@H](O)[C@@H](O[C@H]6[C@H](O)[C@@H](O)[C@@H](O[C@H]7[C@H](O)[C@@H](O)[C@@H](O[C@H]1[C@H](O)[C@H]2O)O[C@@H]7CO)O[C@@H]6CO)O[C@@H]5CO)O[C@@H]4CO)O[C@@H]3CO` [α-CD, α-cyclodextrin, reference compound]: the “bFGF concentration relative to that” value at bFGF [1] (test compound 250 μg/ml) was “x (bFGF concentration was less than 10% relative to that of 4 °C control)”.
